From patent publication US20240246967A1, “AXL COMPOUNDS” (ARCUS BIOSCIENCES, INC., priority 2021, published 2024) come the findings set out here.

pIC50: −log10 of the molar value.

The target of assay [1] is T1, Axl (Homo sapiens, UniProt P30530).
T1 sequence (P30530 26-894): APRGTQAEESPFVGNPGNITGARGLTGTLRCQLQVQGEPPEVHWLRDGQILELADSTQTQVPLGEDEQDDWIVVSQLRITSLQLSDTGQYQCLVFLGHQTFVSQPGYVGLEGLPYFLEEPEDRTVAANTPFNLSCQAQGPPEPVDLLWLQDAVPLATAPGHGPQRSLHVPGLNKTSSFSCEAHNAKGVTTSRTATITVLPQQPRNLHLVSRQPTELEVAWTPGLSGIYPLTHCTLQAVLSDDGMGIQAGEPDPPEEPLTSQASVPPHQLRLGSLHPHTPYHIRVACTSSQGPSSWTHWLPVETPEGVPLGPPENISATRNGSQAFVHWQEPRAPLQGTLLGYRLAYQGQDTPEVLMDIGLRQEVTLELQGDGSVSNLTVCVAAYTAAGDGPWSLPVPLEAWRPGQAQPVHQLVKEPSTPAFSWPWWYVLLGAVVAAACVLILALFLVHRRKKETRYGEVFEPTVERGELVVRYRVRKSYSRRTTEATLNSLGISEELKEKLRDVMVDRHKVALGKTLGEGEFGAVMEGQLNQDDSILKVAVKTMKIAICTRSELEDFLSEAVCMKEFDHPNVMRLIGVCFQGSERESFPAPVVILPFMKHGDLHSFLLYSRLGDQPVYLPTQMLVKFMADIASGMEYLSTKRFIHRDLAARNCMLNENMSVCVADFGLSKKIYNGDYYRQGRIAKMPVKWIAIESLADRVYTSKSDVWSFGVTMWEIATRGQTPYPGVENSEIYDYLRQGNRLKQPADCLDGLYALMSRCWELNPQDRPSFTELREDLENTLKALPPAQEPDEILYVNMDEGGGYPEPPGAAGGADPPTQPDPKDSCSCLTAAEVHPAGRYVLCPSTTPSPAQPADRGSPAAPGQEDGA
The experiment in a line: HTRF KinEASE-TK biochemical potency assay, AXL. Details: purchased Invitrogen. The note with it: 5 nM AXL, 700 μM ATP, 800 nM TK Substrate-biotin. The method in brief: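 Enzyme (final 5 nM AXL; 1 nM TYRO3 or MER) plus compound, 1 h RT → add biotinylated TK substrate (800 nM final) and ATP (700 μM final) → 2 h RT → stop into HTRF detection mix → read 665/620 nm. Activity normalised to DMSO and pre-stopped blanks.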

Assay [2] deals with T1, Axl. Description: Axl NanoBRET intracellular kinase assay (intracellular binding, Cell Binding). The note with it: HEK-293 cells transfected with Axl-NanoLuc fusion vector; 0.35 μM K-5 NanoBRET tracer. Details: host or cells: HEK-293. The method in brief:
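BRET ratio (610 nm/450 nm) decrease from K-5 tracer displacement gave binding; IC50 by 4-parameter non-linear regression of percent activity. Live HEK-293 cells expressed transiently transfected Axl-NanoLuc. Compound 1 h, then 0.35 μM tracer 2 h, both 37 °C, 5% CO2.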

For `CCC1(N2CCC[C@H]2CO)CCc2ccc(-c3cnc4[nH]nc(-c5ccc(C(N)=O)c(Cl)c5)c4c3)cc2CC1` (stereo partly drawn) [Example 75, 2-Chloro-4-(5-{7-ethyl-7-[(2S)-2-(hydroxymethyl)pyrrolidin-1-yl]-6,7,8,9-tetrahydro-5H-benzo[7]annulen-2-yl}-1H-pyrazolo[3,4-b]pyridin-3-yl)benzamide], the pIC50 in assay [1] and in assay [2] was more than 7.00 each time.

On to `NS(=O)(=O)c1ccc(-c2n[nH]c3ncc(-c4ccc5c(c4)CCN(C4CCCC4)CC5)cc23)cc1Cl` [Example 92, 2-Chloro-4-(5-(3-cyclopentyl-2,3,4,5-tetrahydro-1H-benzo[d]azepin-7-yl)-1H-pyrazolo[3,4-b]pyridin-3-yl)benzenesulfonamide], for which the negative-log IC50 (pIC50) in assay [1] was more than 7.00; in assay [2] it was 6.00 to 7.00.

As to `C[C@@H]1CCCN1C1(C)CCc2ccc(-c3cnc4[nH]nc(-c5ccc(C(=O)N6CCC6)cc5)c4c3)cc2CC1` (stereo partly drawn) [Example 76, (2R)-1-(2-{3-[4-(Azetidine-1-carbonyl)phenyl]-1H-pyrazolo[3,4-b]pyridin-5-yl}-7-methyl-6,7,8,9-tetrahydro-5H-benzo[7]annulen-7-yl)-2-methylpyrrolidine], the pIC50 in assay [1] and in assay [2] was more than 7.00 in each case.

Consider `C[C@@H]1CCCN1C1CCc2ccc(-c3cnc4[nH]nc(-c5cnc(C(C)(C)O)c(Cl)c5)c4c3)cc2CC1` (stereo partly drawn) [Example 65, 2-[3-Chloro-5-(5-{7-[(2R)-2-methylpyrrolidin-1-yl]-6,7,8,9-tetrahydro-5H-benzo[7]annulen-2-yl}-1H-pyrazolo[3,4-b]pyridin-3-yl)pyridin-2-yl]propan-2-ol], for which the negative-log IC50 (pIC50) in assay [1] and in assay [2] was more than 7.00 in each case.

With `NC(=O)c1ccc(-c2n[nH]c3ncc(-c4ccc5c(c4)CCC(N4CCCC4)CC5)cc23)cc1F` (centres unmarked) [Example 81, 2-Fluoro-4-(5-(7-(pyrrolidin-1-yl)-6,7,8,9-tetrahydro-5H-benzo[7]annulen-2-yl)-1H-pyrazolo[3,4-b]pyridin-3-yl)benzamide], the pIC50 in assay [1] and in assay [2] was more than 7.00 each time.

`C[C@@H]1CCCN1C1(C)CCc2ccc(-c3cnc4[nH]nc(-c5ccc(S(=O)(=O)C6CC6)cc5)c4c3)cc2CC1` (stereo partly drawn) [Example 1, 3-(4-(Cyclopropylsulfonyl)phenyl)-5-(7-methyl-7-((R)-2-methylpyrrolidin-1-yl)-6,7,8,9-tetrahydro-5H-benzo[7]annulen-2-yl)-1H-pyrazolo[3,4-b]pyridine]: the pIC50 in assay [1] and in assay [2] was more than 7.00 each time.

On to `O=C(c1ccc(-c2n[nH]c3ncc(-c4ccc5c(c4)CC[C@@H](N4CCCC4)CC5)cc23)cc1Cl)N1CCNCC1` [Example 82, (S)-(2-Chloro-4-(5-(7-(pyrrolidin-1-yl)-6,7,8,9-tetrahydro-5H-benzo[7]annulen-2-yl)-1H-pyrazolo[3,4-b]pyridin-3-yl)phenyl)(piperazin-1-yl)methanone], for which the negative-log IC50 (pIC50) in assay [1] and in assay [2] was more than 7.00 throughout.

For the molecule `CCC1(N2CCC[C@H]2C)CCc2ccc(-c3cnc4[nH]nc(-c5ccc(C(N)=O)c(Cl)c5)c4c3)cc2CC1` (stereo partly drawn) [Example 73, 2-Chloro-4-(5-{7-ethyl-7-[(2R)-2-methylpyrrolidin-1-yl]-6,7,8,9-tetrahydro-5H-benzo[7]annulen-2-yl}-1H-pyrazolo[3,4-b]pyridin-3-yl)benzamide], the pIC50 in assay [1] and in assay [2] was more than 7.00 each time.

`C[C@@H]1CCCN1C1(C)CCc2ccc(-c3cnc4[nH]nc(-c5ccc(S(N)(=O)=O)c(Cl)c5)c4c3)cc2CC1` (stereo partly drawn) [Example 93, 2-Chloro-4-(5-(7-methyl-7-((R)-2-methylpyrrolidin-1-yl)-6,7,8,9-tetrahydro-5H-benzo[7]annulen-2-yl)-1H-pyrazolo[3,4-b]pyridin-3-yl)benzenesulfonamide]: the negative logarithm of the IC50 (pIC50) in assay [1] and in assay [2] was more than 7.00 in each case.

Turning to `CC1(N2CCOCC2)CCc2ccc(-c3cnc4[nH]nc(-c5ccc(S(=O)(=O)C6CC6)cc5)c4c3)cc2CC1` (centres unmarked) [Example 2, 4-(2-{3-[4-(Cyclopropanesulfonyl)phenyl]-1H-pyrazolo[3,4-b]pyridin-5-yl}-7-methyl-6,7,8,9-tetrahydro-5H-benzo[7]annulen-7-yl)morpholine], the pIC50 in assay [1] and in assay [2] was less than 6.00 in each case.

`Cc1cc(-c2n[nH]c3ncc(-c4ccc5c(c4)CCC(N4CCCC4)CC5)cc23)cc(F)c1C(N)=O` (centres unmarked) [Example 79, 2-Fluoro-6-methyl-4-(5-(7-(pyrrolidin-1-yl)-6,7,8,9-tetrahydro-5H-benzo[7]annulen-2-yl)-1H-pyrazolo[3,4-b]pyridin-3-yl)benzamide]: the pIC50 in assay [1] and in assay [2] was more than 7.00 throughout.

Regarding `COc1cc(-c2n[nH]c3ncc(-c4ccc5c(c4)CCC(C)(N4CCC[C@H]4C)CC5)cc23)ccc1S(N)(=O)=O` (stereo partly drawn) [Example 87, 2-Methoxy-4-(5-(7-methyl-7-((R)-2-methylpyrrolidin-1-yl)-6,7,8,9-tetrahydro-5H-benzo[7]annulen-2-yl)-1H-pyrazolo[3,4-b]pyridin-3-yl)benzenesulfonamide], the pIC50 is more than 7.00 in assay [1] and 6.00 to 7.00 in assay [2].

As to `NC(=O)c1ccc(-c2n[nH]c3ncc(-c4ccc5c(c4)CC[C@@H](N4CCCC4)CC5)cc23)cc1Cl` [Example 84, (S)-2-Chloro-4-(5-(7-(pyrrolidin-1-yl)-6,7,8,9-tetrahydro-5H-benzo[7]annulen-2-yl)-1H-pyrazolo[3,4-b]pyridin-3-yl)benzamide], the pIC50 in assay [1] and in assay [2] was more than 7.00 each time.

With `NC(=O)c1ccc(-c2n[nH]c3ncc(-c4ccc5c(c4)CCC(N4CCCC4)CC5)cc23)cc1` (centres unmarked) [Example 78, 4-(5-(7-(Pyrrolidin-1-yl)-6,7,8,9-tetrahydro-5H-benzo[7]annulen-2-yl)-1H-pyrazolo[3,4-b]pyridin-3-yl)benzamide], the pIC50 in assay [1] and in assay [2] was more than 7.00 each time.

Consider `O=C(c1ccc(-c2n[nH]c3ncc(-c4ccc5c(c4)CC[C@@H](N4CCCC4)CC5)cc23)cc1Cl)N1CCC(O)CC1` [Example 85, (S)-(2-Chloro-4-(5-(7-(pyrrolidin-1-yl)-6,7,8,9-tetrahydro-5H-benzo[7]annulen-2-yl)-1H-pyrazolo[3,4-b]pyridin-3-yl)phenyl)(4-hydroxypiperidin-1-yl)methanone], for which the pIC50 in assay [1] and in assay [2] was more than 7.00 throughout.

With `Cc1cc(-c2n[nH]c3ncc(-c4ccc5c(c4)CC[C@@H](N4CCCC4)CC5)cc23)cc(F)c1C(N)=O` [Example 83, (S)-2-Fluoro-6-methyl-4-(5-(7-(pyrrolidin-1-yl)-6,7,8,9-tetrahydro-5H-benzo[7]annulen-2-yl)-1H-pyrazolo[3,4-b]pyridin-3-yl)benzamide], the pIC50 in assay [1] and in assay [2] was more than 7.00 throughout.

`C[C@@H]1CCCN1C1CCc2ccc(-c3cnc4[nH]nc(-c5ccc(C6(O)CCOC6)c(Cl)c5)c4c3)cc2CC1` (stereo partly drawn) [Example 63, 3-[2-Chloro-4-(5-{7-[(2R)-2-methylpyrrolidin-1-yl]-6,7,8,9-tetrahydro-5H-benzo[7]annulen-2-yl}-1H-pyrazolo[3,4-b]pyridin-3-yl)phenyl]oxolan-3-ol]: the negative logarithm of the IC50 (pIC50) in assay [1] and in assay [2] was more than 7.00 throughout.

As for `COC1CCN(C(=O)c2ccc(-c3n[nH]c4ncc(-c5ccc6c(c5)CC[C@@H](N5CCCC5)CC6)cc34)cc2Cl)CC1` [Example 66, (S)-(2-Chloro-4-(5-(7-(pyrrolidin-1-yl)-6,7,8,9-tetrahydro-5H-benzo[7]annulen-2-yl)-1H-pyrazolo[3,4-b]pyridin-3-yl)phenyl)(4-methoxypiperidin-1-yl)methanone], the pIC50 in assay [1] and in assay [2] was more than 7.00 in each case.

Take `NC(=O)c1ccc(-c2n[nH]c3ncc(-c4ccc5c(c4)CCC(N4CCCC4)CC5)cc23)cc1Cl` (centres unmarked) [Example 77, 2-Chloro-4-(5-(7-(pyrrolidin-1-yl)-6,7,8,9-tetrahydro-5H-benzo[7]annulen-2-yl)-1H-pyrazolo[3,4-b]pyridin-3-yl)benzamide]: the negative logarithm of the IC50 (pIC50) in assay [1] and in assay [2] was more than 7.00 throughout.
